Experimental data reported in article PMC9822352, “Design, Synthesis and Evaluation of New Multifunctional Benzothiazoles as Photoprotective, Antioxidant and Antiproliferative Agents” (Molecules, 2022).
“And” between values parts separate entries of the source, which are not always exact repeats. Equal entries are not always repeated.

Key:
[1] = FRAP (Ferric Reducing Antioxidant Power) assay; conditions: Trolox standard, 37 °C 10 min, 593 nm; mean ± SEM
Description: The FRAP (Ferric Reducing Antioxidant Power) test allows the measurement of the ability of antioxidants to reduce ferric ion to ferrous. This method represents one of the simplest, quickest and least expensive methods for the determination of reducing properties on oxidized species in vitro.
The FRAP test (Ferric Reducing Antioxidant Power) is based on a colorimetric reaction and evaluates the ability of a sample of reducing ferric ions to ferrous ion while complexed with TPTZ (2,4,6-trispyridil-s-triazine). The FRAP solution was prepared from 0.1 M acetate buffer (pH 3.6), 10 mmol/L of TPTZ in 40 mM HCl, and 20 mM solution of FeCl3, with a 10:1:1 ratio, as described. Then, 1.9 mL of this solution was incubated with 0.1 mL of the sample solution at 37 °C for 10 min. The absorbance was read with a UV-Vis spectrophotometer at a 593 nm wavelength, relative to the maximum peak of absorbance of Fe^2+-TPTZ complex. Trolox® was used as a standard and the results are expressed as µmolTE/g.

HaCat keratinocytes = experiment: Cell growth inhibition assay, HaCat; format: cell-based, human; conditions: Homo sapiens, HaCaT; 24 h incubation, cell count
Experimental: (§1) All synthesized compounds were tested in order to evaluate their in vitro antiproliferative activity. The human melanoma Colo-38 cell line was selected as a tumor skin model, while the immortalized human HaCaT keratinocytes were chosen as a control for the evaluation of the cytotoxicity towards non-cancerous cells and of the selectivity towards tumor cell lines. […] The selectivity index (SI) was also calculated and is the ratio between the IC50 of a given compound towards the non-cancerous cell line and the IC50 of the same compound towards the tumor cell line.
(§2) Cell growth inhibition assays were carried out using human melanoma Colo-38 cells and skin HaCat keratinocytes cells. Human melanoma Colo-38 cells were kindly provided by Dr. Patrizio Giacomini (Laboratory of Immunology, Regina Elena Institute, Rome, Italy). HaCat cells were kindly provided by Istituto Zooprofilattico Sperimentale della Lombardia e dell’Emilia Romagna, Brescia, Italy. Cell lines were seeded using concentrations of 40,000 cells/mL and 25,000 cells/mL, respectively. Colo-38 cells were maintained in RPMI 1640, supplemented with 10% fetal bovine serum (FBS), penicillin (100 Units mL^−1), and streptomycin (100 µg mL^−1). HaCat cells were maintained in DMEM, supplemented with 10% fetal bovine serum (FBS), penicillin (100 Units mL^−1), streptomycin (100 µg mL^−1) and glutamine (2 mM); the incubation was performed at 37 °C in a 5% CO2 atmosphere. Tested compounds were dissolved in MeOH/DMSO (1:1) to obtain 50 mM stock solutions and diluted before cell treatment in MeOH 100%. The tested compounds were added at serial dilutions to the cell cultures (from 0.1 to 100 µM) and incubated for 24 h further. Cells were then harvested, suspended in physiological solution, and counted with a Z2 Coulter Counter (Coulter Electronics, Hialeah, FL, USA). The cell number/mL and the IC50 values were determined when untreated cells were in the log phase of cell growth. Cells treated with vehicles and untreated cells were placed in each plate.

melanoma Colo-38 cells = experiment: Cell growth inhibition assay, Colo-38; format: cell-based, human; conditions: for IC50: Homo sapiens, 24 h incubation, cell count; for SI Colo-38 (selectivity index): IC50 HaCat / IC50 Colo-38
Experimental: as §1, §2

[2] = DPPH radical scavenging test; conditions: mean ± SEM; for DPPH (% Inhibition): compound at 1 mg/mL, 30 min, 517 nm
Experimental: The DPPH assay is widely used, and the simplest and fastest in vitro method for evaluating the antioxidant power of extracts or isolated compounds; it is based on the depletion of the 2,2-diphenyl-1-picrylhydrazyl radical (DPPH˙) by an antioxidant molecule with scavenger activity. This is an extremely sensitive test that can detect the activity of active ingredients present in very low concentrations.
The procedure used was adapted from Wang et al.. Briefly, 0.750 mL of a methanolic solution of each tested compound was treated with 1.5 mL of DPPH solution (0.004%) in MeOH. Samples were stored in the dark at room temperature for 30 min, and the absorbance value was read with a spectrophotometer at 517 nm, which is the maximum peak of absorbance relative to the DPPH radical absorption spectra. The values obtained were fitted into Equation (1) and converted to inhibition percentage (%) of the radical:DPPH inhibition percentage (%) = 100 × [1 − A1/A0](1) where A1 and A0 were, respectively, the absorbance recorded with and without the sample, which are directly proportional to DPPH residual concentration in the sample and DPPH concentration in the control (0.750 of MeOH and 1.5 mL of DPPH solution). […] A linear regression was performed to calculate the sample concentration able to eliminate 50% of DPPH free radicals.

HaCat cell line = experiment: Pro-apoptotic activity (Annexin V method), HaCat; format: cell-based, human; conditions: 24 h
Experimental: The Annexin V assay was conducted at two concentrations approaching IC50 values toward the selected cell lines reported in Table 3. The complete set of data is reported in Table 4, while representative data from the analysis of the corresponding Muse Analyzer plots are shown in Figure 2.
Apoptosis assays were performed with a Muse® Cell Analyzer instrument (Merck Millipore, Burlington, MA, USA) and the kit on Colo-38 and HaCat cell lines according to the manufacturer’s protocol. Cells were treated and exposed to the compounds for 24 h. This procedure is based on the detection of PS (PhosphatidylSerine) exposed on the external membrane of apoptotic cells by Annexin V. Four populations of cells can be distinguished using this assay: live, early apoptotic, late apoptotic and dead cells. The MUSE cell analyzer can discriminate “early” from “late” apoptosis since “early apoptotic cells” are Annexin V-positive and 7-AAD-negative, while “late apoptotic cells” are positive to both Annexin V and 7-AAD (7-aminoactinomycin D). The DNA intercalating molecule 7AAD (7-aminoactinomycin D) is used as an indicator of cell membrane integrity, since it binds DNA only in cells undergoing late apoptosis/death stage, when the membrane integrity is lost. Muse Annexin V and Dead Cell reagent were used to dilute the cells (1:1). After 20 min of incubation between cell samples and the kit at room temperature in the dark, the samples were analyzed using 0.01% Triton X-100 as positive control. The data were acquired and recorded using the Annexin V and Dead Cell software module (Millipore, Billerica, MA, USA).

SMILES | FRAP [1] | IC50 (HaCat keratinocytes) [µM] | IC50 (melanoma Colo-38 cells) [µM] | DPPH (% Inhibition) [2] [%] | SI Colo-38 (selectivity index) (melanoma Colo-38 cells) | DPPH IC50 [2] [µg/mL] | Dead (%) (HaCat cell line; 5 µM) | Early Apoptosis (%) (HaCat cell line; 5 µM) | Late Apoptosis (%) (HaCat cell line; 5 µM) | Dead (%) (HaCat cell line; 10 µM) | Early Apoptosis (%) (HaCat cell line; 10 µM) | Late Apoptosis (%) (HaCat cell line; 10 µM) | Dead (%) (HaCat cell line; 50 µM) | Early Apoptosis (%) (HaCat cell line; 50 µM) | Late Apoptosis (%) (HaCat cell line; 50 µM) | Dead (%) (HaCat cell line; 100 µM) | Early Apoptosis (%) (HaCat cell line; 100 µM) | Late Apoptosis (%) (HaCat cell line; 100 µM)
O=C(/C=C/c1ccc(O)cc1)Nc1nc2ccccc2s1 [BZTcin2, (E)-N-(benzo[d]thiazol-2-yl)-3-(4-hydroxyphenyl)acrylamide] | 43.73 ± 2.83 µmolTE/g | > 100 | 35.2 ± 5.52 | 12.37 ± 0.00 |  |  |  |  |  |  |  |  |  |  |  |  |  | 
O=C(/C=C/c1ccc(O)c(O)c1)Nc1nc2ccccc2s1 [BZTcin4, (E)-N-(benzo[d]thiazol-2-yl)-3-(3,4-dihydroxyphenyl)acrylamide] | 4583.10 µmolTE/g and 4583.10 ± 22.68 µmolTE/g | 38.1 ± 5.13 | 8.31 ± 0.76 | >90.00 | 4.59 | 4.86 ± 0.38 | 0.41 | 1.83 | 3.05 | 1.96 | 1.13 | 15.56 |  |  |  |  |  | 
COc1ccc(/C=C/C(=O)Nc2nc3ccccc3s2)cc1O [BZTcin5, (E)-N-(benzo[d]thiazol-2-yl)-3-(3-hydroxy-4-methoxyphenyl)acrylamide] | 2043.33 ± 12.03 µmolTE/g | 83.3 ± 5.79 | 10 ± 6.12 | 40.15 ± 0.18 | 8.33 |  |  |  |  |  |  |  | 0.19 | 2.29 | 3.73 | 0.20 | 1.84 | 5.00
O=C(N/N=C/c1ccc(O)cc1)c1nc2ccccc2s1 [BZTidr2, (E)-N′-(4-hydroxybenzylidene)benzo[d]thiazole-2-carbohydrazide] | 1160.24 ± 17.34 µmolTE/g | > 100 | 92.6 ± 1.68 | 54.80 ± 1.63 |  |  |  |  |  |  |  |  |  |  |  |  |  | 
